Values quoted from earlier work in US20060052382A1, “3-Amino-4-phenylbutanoic acid derivatives as dipeptidyl peptidase inhibitors for the treatment or prevention of diabetes” (priority 2002, published 2006).
One block for each compound: values may come before it.

Key:
DP-IV = biological target: T1, DP-IV (Homo sapiens, UniProt P27487); details: plasma
T1 construct: GRF is rapidly degraded in plasma to GRF[3-44]

cardiac allograft = details: rats; Transplantation, 63: 1495-1500 (1997)
hematopoiesis = details: mouse, cyclophosphamide-induced neutropenia; WO 99/56753

T1 sequence (P27487 39-766 limits assumed): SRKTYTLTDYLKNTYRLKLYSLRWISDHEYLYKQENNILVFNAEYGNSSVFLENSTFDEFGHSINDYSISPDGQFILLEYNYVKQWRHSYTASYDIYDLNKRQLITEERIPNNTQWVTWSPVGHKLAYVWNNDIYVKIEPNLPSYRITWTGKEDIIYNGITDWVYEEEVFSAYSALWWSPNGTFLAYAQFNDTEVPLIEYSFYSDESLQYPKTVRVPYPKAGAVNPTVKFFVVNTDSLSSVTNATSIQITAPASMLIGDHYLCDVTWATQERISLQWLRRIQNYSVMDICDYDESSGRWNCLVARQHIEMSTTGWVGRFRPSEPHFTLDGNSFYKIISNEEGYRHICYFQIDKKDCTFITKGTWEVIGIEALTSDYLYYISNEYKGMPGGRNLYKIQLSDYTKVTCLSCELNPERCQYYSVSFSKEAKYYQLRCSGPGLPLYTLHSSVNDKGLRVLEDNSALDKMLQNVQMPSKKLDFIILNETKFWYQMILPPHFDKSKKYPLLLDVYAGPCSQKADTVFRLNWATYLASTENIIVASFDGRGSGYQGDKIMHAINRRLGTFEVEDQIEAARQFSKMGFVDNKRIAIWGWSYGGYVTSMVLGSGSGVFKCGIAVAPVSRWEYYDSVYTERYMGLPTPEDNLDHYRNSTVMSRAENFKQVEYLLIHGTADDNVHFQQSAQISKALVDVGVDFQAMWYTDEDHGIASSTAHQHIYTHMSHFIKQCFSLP

prevention of GRF degradation to GRF[3-44] (DP-IV): prevented
Compound: diprotin A

Compound: CC(C)N1CCC(c2ccccc2)(c2ccccc2)CC1 [Prodipine, Pro-Pro-diphenyl-phosphonate]
cardiac allograft survival (cardiac allograft): double cardiac allograft survival in rats from day 7 to day 14

Compound: CC(C)[C@H](N)C(=O)N1CCC[C@H]1B(O)O [Val-Boro-Pro]
stimulation of hematopoiesis (hematopoiesis): stimulated hematopoiesis
